Consider 46 molecules from ChEMBL document CHEMBL5149998, “Synthetic access to thiolane-based therapeutics and biological activity studies” (Eur J Med Chem, 2021).

Test [1] concerns Jurkat. In words: Anticancer activity against human Jurkat T cells assessed as cell growth inhibition. It counts as functional, cell-based.
The subject of test [2] is HT-29. Briefly: Anticancer activity against human HT-29 cells assessed as cell growth inhibition. It counts as functional, cell-based.
The test system of test [3] is U-937. In words: Anticancer activity against human U-937 cells assessed as cell growth inhibition. It counts as functional, cell-based.
Test [4] relates to Enterococcus. Briefly: Antibacterial activity against vancomycin resistant Enterococcus incubated for 24 hrs by broth microdilution method. It counts as functional. (In general: Dilution methods test growth across graded concentrations, often in twofold steps.)
Test [5] concerns Staphylococcus aureus. In words: Antibacterial activity against methicillin resistant Staphylococcus aureus incubated for 24 hrs by broth microdilution method. Format: functional.
For test [6], the system named is B16. Briefly: Anticancer activity against mouse B16 cells assessed as cell growth inhibition. It counts as functional, cell-based.
For test [7], the system named is B16. In words: Antitumor activity against mouse B16 cells implanted in mouse assessed as inhibition of lung tumor formation at 5 mg/kg, po measured after 10 days relative to control. It counts as functional. More on the design: scale not given: the % may be the effect or the level left. As to conditions: time 10 day.
For test [8], the target named is Prostaglandin G/H synthase 1 (Homo sapiens, UniProt P23219). Briefly: Inhibition of COX-1 (unknown origin) using arachidonic acid as substrate assessed as PGH2 level preincubated for 5 mins followed by substrate addition and measured after 1 min by UHPLC-MS/MS analysis.
Chain of Prostaglandin G/H synthase 1 (P23219 whole entry): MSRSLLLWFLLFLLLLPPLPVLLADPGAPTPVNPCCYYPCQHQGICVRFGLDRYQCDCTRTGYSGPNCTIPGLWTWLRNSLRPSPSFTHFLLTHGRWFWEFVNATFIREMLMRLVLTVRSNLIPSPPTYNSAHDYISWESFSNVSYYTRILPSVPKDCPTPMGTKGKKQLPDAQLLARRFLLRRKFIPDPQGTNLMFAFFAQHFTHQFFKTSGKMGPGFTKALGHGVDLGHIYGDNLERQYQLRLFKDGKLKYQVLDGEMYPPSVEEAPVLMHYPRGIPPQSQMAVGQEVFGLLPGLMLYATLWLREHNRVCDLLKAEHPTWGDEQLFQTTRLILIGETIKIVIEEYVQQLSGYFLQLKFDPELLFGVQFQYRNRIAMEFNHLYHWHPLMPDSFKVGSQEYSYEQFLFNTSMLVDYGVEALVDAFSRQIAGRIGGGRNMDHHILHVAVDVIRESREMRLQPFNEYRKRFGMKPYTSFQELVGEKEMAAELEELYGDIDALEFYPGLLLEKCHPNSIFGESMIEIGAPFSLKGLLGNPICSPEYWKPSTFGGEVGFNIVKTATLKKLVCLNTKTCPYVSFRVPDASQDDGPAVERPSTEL
A short description of test [9]: Inhibition of Saccharomyces alpha-glucosidase using p-nitrophenyl-alpha-D-glucopyranoside as substrate assessed as substrate hydrolysis incubated for 15 mins by spectrophotometer analysis. Details: species or system Saccharomyces sp.
Test [10] concerns Histoplasma capsulatum. Briefly: Antifungal activity against Histoplasma capsulatum. It counts as functional.
Test [11] relates to Blastomyces dermatitidis. Briefly: Antifungal activity against Blastomyces dermatitidis. Format: functional.

Molecules are shown by their SMILES. ≈ marks a conversion by molar mass, not a printed value.

As a reminder, the EC50 is the midpoint of the concentration-response curve. Consider `CC1CCC(c2ccoc2)N2C1CCC1(CSC3(CCC4C(C)CCC(c5ccoc5)N4C3O)C1)C2O` (centres undefined), for which the values for the EC50 in test [1] and in test [2] were 263 nM and 547 nM, respectively.
What is called IC50 is the concentration that gives 50% inhibition. Take `C#CC[C@@]1(SC)CC[C@@H]2[C@@H](C)CC[C@H](c3ccccc3)N2[C@H]1O`: the IC50 in test [3] is 2500 nM.
Still for that read-out and setting: with `CSC1(SC)CCC2C(C)CCC(c3ccccc3)N2C1O` (racemic) the figure was 5000 nM.
Turning to `C1=[N+](CCCCc2ccccc2)CCCC12CCCO2` (centres undefined), the results for the concentration for a half-maximal effect (EC50) in test [1] and in test [2] were 38000 nM and 87000 nM, respectively.
Regarding `CSC1(SC)CC[C@H]2[C@H](C)CC[C@@H](c3ccccc3)N2[C@@H]1O`, the half-maximal inhibitory concentration (IC50) in test [3] stood at 10000 nM.
For the molecule `CSC1(SC)CC[C@@H]2[C@@H](C)CC[C@H](c3ccc(F)cc3)N2[C@H]1O`, the half-maximal inhibitory concentration (IC50) in [3] stood at 5000 nM.
Same read-out and setting: with `CS[C@]1(C)CC[C@@H]2[C@@H](C)CC[C@H](c3ccc(F)cc3)N2[C@H]1O` the figure was 1250 nM; with `CS[C@@]1(C)CC[C@@H]2[C@@H](C)CC[C@H](c3ccc(F)cc3)N2[C@H]1O`, 5000 nM; with `C[C@H]1CC[C@H](c2ccoc2)N2[C@@H]1CC[C@]1(CS[C@]3(CC[C@@H]4[C@@H](C)CC[C@H](c5ccoc5)N4[C@H]3O)C1)[C@@H]2O`, 5000 nM.
Same read-out and setting: with `C[C@@H]1CC[C@@H](c2ccoc2)N2[C@H]1CC[C@@]1(CS[C@]3(CC[C@H]4[C@H](C)CC[C@@H](c5ccoc5)N4[C@@H]3O)C1)[C@H]2O` the figure was 2500 nM.
As usually defined, the MIC is the smallest concentration in the dilution series that meets the test's criterion for growth inhibition. In the case of `CCn1cc(C(=O)O)c(=O)c2cc(F)c(N3CCNCC3)cc21` [NORFLOXACIN], the MIC is 4 µg/mL (≈ 12.5 µM) in [4] and 0.5 µg/mL (≈ 1.57 µM) in test [5].
On to `C[C@H]1CC[C@H](c2ccccc2)N2[C@@H]1CC[C@](C)(Sc1ccccc1)[C@@H]2O`, for which the IC50 in [3] came out at 5000 nM.
For the molecule `C1=[N+](CCCCc2ccccc2)CCCC12CCC2`, the concentration giving a half-maximal response (EC50) was 9600 nM in test [1] and 43000 nM in test [2].
With `CSC1(SC)CC[C@@H]2[C@@H](C)CC[C@H](c3ccccc3)N2[C@H]1O`, the IC50 in test [3] was 1250 nM.
Same read-out and setting: with `C[C@@H]1CC[C@@H](c2ccoc2)N2[C@H]1CC[C@]1(CS[C@]3(CC[C@H]4[C@H](C)CC[C@@H](c5ccoc5)N4[C@@H]3O)C1)[C@H]2O` the figure was 1250 nM; with `C[C@@H]1CC[C@@H](c2ccoc2)N2[C@H]1CC[C@]1(CS[C@@]3(CC[C@H]4[C@H](C)CC[C@@H](c5ccoc5)N4[C@@H]3O)C1)[C@H]2O`, 2500 nM.
Regarding `C1=[N+](CCCCc2ccccc2)CCCC12CCCS2` (centres undefined), the EC50 in test [1] came to 6300 nM; in [2], 12000 nM.
For `FC(F)(F)c1ccc(C[N+]2=CC3(CCC2)CSC2(C=[N+](Cc4ccc(C(F)(F)F)cc4)CCC2)C3)cc1` (centres undefined) the same measures were 1800 nM and 2400 nM.
The like results for `COc1ccc(C[N+]2=CC3(CCC2)CSC2(C=[N+](Cc4ccc(OC)cc4)CCC2)C3)cc1` (centres undefined) were, in that order, 1800 nM and 2800 nM.
The like results for `C1=[N+](Cc2ccccc2)CCCC12CSC1(C=[N+](Cc3ccccc3)CCC1)C2` (centres undefined) were, in that order, 1600 nM and 2300 nM.
`CC1CCC(c2ccccc2)N2C1CCC(C)(Sc1ccccc1)C2O` (racemic): in test [3], the 50% inhibitory concentration (IC50) was determined as 5000 nM.
On to `C1=[N+](CCCCc2ccccc2)CCCC12CSC1(C=[N+](CCCCc3ccccc3)CCC1)C2` (centres undefined), for which the results for the EC50 in [1] and in test [2] were 1200 nM and 2100 nM, respectively.
For the molecule `C[C@@H]1CC[C@@H](c2ccoc2)N2C[C@@]3(CC[C@@H]12)CS[C@@]1(CC[C@H]2[C@H](C)CC[C@@H](c4ccoc4)N2[C@@H]1O)C3`, the values for the IC50 in test [3] and in test [6] were 5000 nM and 29 nM, respectively. In test [7], the Activity is greater than 90%.
`C=CC[C@]1(SC)CC[C@@H]2[C@@H](C)CC[C@H](c3ccc(F)cc3)N2[C@H]1O`: in [3], the IC50 is 5000 nM.
On the same count and under the same terms, as for `C#CCC1(SC)CCC2C(C)CCC(c3ccccc3)N2C1O` (racemic), the figure is 5000 nM.
`Cc1onc(-c2ccccc2)c1C(=O)N[C@@H]1C(=O)N2[C@@H]1SC(C)(C)[C@@H]2C(=O)O` [OXACILLIN] registered an MIC in [5] of 0.06 µg/mL (≈ 0.149 µM).
`CN[C@H](CC(C)C)C(=O)N[C@H]1C(=O)N[C@@H](CC(N)=O)C(=O)N[C@H]2C(=O)N[C@H]3C(=O)N[C@H](C(=O)N[C@H](C(=O)O)c4cc(O)cc(O)c4-c4cc3ccc4O)[C@H](O)c3ccc(c(Cl)c3)Oc3cc2cc(c3O[C@@H]2O[C@H](CO)[C@@H](O)[C@H](O)[C@H]2O[C@H]2C[C@](C)(N)[C@H](O)[C@H](C)O2)Oc2ccc(cc2Cl)[C@H]1O` [VANCOMYCIN] displayed a minimal inhibitory concentration (MIC) in [4] of 0.5 µg/mL (≈ 0.345 µM).
For `CSC1(C)CCC2C(C)CCC(c3ccccc3)N2C1O` (racemic), the 50% inhibitory concentration (IC50) in test [3] stood at 3000 nM.
Regarding `COc1ccc([C@H]2CC[C@H](C)[C@H]3CCC(SC)(SC)[C@H](O)N23)cc1`, the half-inhibitory concentration (IC50) in [3] came out at 5000 nM.
In test [5], `CC(=O)NC[C@H]1CN(c2ccc(N3CCOCC3)c(F)c2)C(=O)O1` [LINEZOLID] registered a minimal inhibitory concentration (MIC) of 1 µg/mL (≈ 2.96 µM).
As to `C[C@@H]1CC[C@@H](c2ccccc2)N2[C@@H](O)[C@@](C)(Sc3ccccc3)CC[C@@H]12`, the IC50 in test [3] came to 2500 nM.
`C=C1C=[N+](CCCCc2ccccc2)CCC1`: the EC50 in test [1] was 17000 nM; in test [2] it was 45000 nM.
Consider `COc1ccc([C@H]2CC[C@H](C)[C@H]3CC[C@@](C)(SC)[C@H](O)N23)cc1`, for which the IC50 in test [3] came out at 1250 nM.
Turning to `C[C@@H]1CC[C@@H](c2ccoc2)N2C[C@@]3(CC[C@@H]12)CS[C@]1(CC[C@H]2[C@H](C)CC[C@@H](c4ccoc4)N2[C@@H]1O)C3` [6-HYDROXYTHIONUPHLUTINE B], the half-maximal inhibitory concentration (IC50) in test [6] is 360 nM.
Take `C/C=C/[S+]([O-])SC1SC(O)C(C)C1C` (centres undefined): the results for the IC50 in test [8] and in [9] were 52 nM and 710 nM, respectively.
As to `C[C@H]1CC[C@H](c2ccoc2)N2[C@@H]1CC[C@@]1(CS[C@@]3(CC[C@@H]4[C@@H](C)CC[C@H](c5ccoc5)N4[C@H]3O)C1)[C@@H]2O`, the IC50 in [3] was 2500 nM.
The same measure, in the same setting: with `C[C@H]1CC[C@H](c2ccoc2)N2C[C@]3(CC[C@H]12)CS[C@]1(CC[C@@H]2[C@@H](C)CC[C@H](c4ccoc4)N2[C@H]1O)C3` the figure was 5000 nM; with `C[C@H]1CC[C@H](c2ccoc2)N2[C@@H]1CC[C@]1(CS[C@@]3(CC[C@@H]4[C@@H](C)CC[C@H](c5ccoc5)N4[C@H]3O)C1)[C@@H]2O`, 5000 nM.
On the same count and under the same terms, with `C[C@H]1CC[C@H](c2ccccc2)N2[C@@H]1CC[C@@](C)(Sc1ccccc1)[C@@H]2O` the figure was 2500 nM.
The same measure, in the same setting: as for `COc1ccc([C@H]2CC[C@H](C)[C@H]3CC[C@](C)(SC)[C@H](O)N23)cc1`, the figure is 5000 nM; as for `CS[C@@]1(C)CC[C@@H]2[C@@H](C)CC[C@H](c3ccccc3)N2[C@H]1O`, 5000 nM.
As for `C[C@@H]1CC[C@@H](c2ccoc2)N2[C@H]1CC[C@@]1(CS[C@@]3(CC[C@H]4[C@H](C)CC[C@@H](c5ccoc5)N4[C@@H]3O)C1)[C@H]2O`, the MIC is 2 µg/mL (≈ 3.8 µM) in test [4] and 1 µg/mL (≈ 1.9 µM) in test [5]. Further, the Activity in test [10] and in test [11] was 100 µg/mL in each case. In addition, the values for the IC50 in test [3] and in [6] were 5000 nM and 87 nM, respectively.
Turning to `C#CC[C@]1(SC)CC[C@@H]2[C@@H](C)CC[C@H](c3ccccc3)N2[C@H]1O`, the concentration for half-maximal inhibition (IC50) in test [3] was 2500 nM.
The same measure, in the same setting: with `CS[C@]1(C)CC[C@@H]2[C@@H](C)CC[C@H](c3ccccc3)N2[C@H]1O` the figure was 625 nM.
On to `NCC[C@H](O)C(=O)N[C@@H]1C[C@H](N)[C@@H](O[C@H]2O[C@H](CN)CC[C@H]2N)[C@H](O)[C@H]1O[C@H]1O[C@H](CO)[C@@H](O)[C@H](N)[C@H]1O` [ARBEKACIN], for which the MIC in test [5] worked out at 0.5 µg/mL (≈ 0.905 µM).
As to `C[C@H]1CC[C@H](c2ccoc2)N2[C@@H]1CC[C@@]1(CS[C@]3(CC[C@@H]4[C@@H](C)CC[C@H](c5ccoc5)N4[C@H]3O)C1)[C@@H]2O`, the IC50 in [3] is 2500 nM.
